Laboratory results as given in article PMC3088537, “Production, purification, sequencing and activity spectra of mutacins D-123.1 and F-59.1” (BMC Microbiology, 2011).
Marks after values point to notes of the source that are not given here. Bridge positions count the residues as written; N and C are the ends. Ends that are not written are not given here.

Columns and labels:
[1] = system: L. monocytogenes FRDC 1039; test: Inhibitory spectrum, critical dilution with spot test; assay type: cell-based, Listeria monocytogenes; conditions: purified mutacin, 5 μL spotted on soft agar lawn on TSAYE; reciprocal of highest dilution showing inhibition zone
Experimental: (§1) Streptococcus mutans 59.1 and 123.1 produce mutacins F-59.1 and D-123.1 respectively. Micrococcus luteus ATCC 272 (ATCC, Manassas, VA, USA) was used as the indicator strain for the mutacin activity assays. All bacteria were routinely grown aerobically at 37°C in TSBYE made of TSB (Difco laboratories, Detroit, MI, USA) supplemented with 0.3% yeast extract (Becton Dickinson & Co., Cockeysville, MD, USA) or on TSAYE plates made of TSA (Difco) enriched with 0.3% yeast extract. Lactobacillus salivarius strain (provided by Sylvain Moineau, Université Laval, Québec, QC, Canada) was cultivated aerobically at 30°C in MRS medium (Oxoid, Nepean, ON, Canada). Other bacterial strains used for the inhibitory spectra determination are described in Mota-Meira et al. and Morency et al.. Staphylococcus carnosus was obtained from the strain collection of the Department of Microbiology, Biochemistry and Bioinformatics (Université Laval).
(§2) Mutacin activity was determined by the spot test using Micrococcus luteus ATCC 272 as sensitive strain where two-fold dilutions were prepared in acidified (pH 2) peptone water (0.5%). Antibacterial activity spectra of purified mutacins was tested against a panel of bacterial strains using the critical dilution method combined with the spot test method as described previously. Briefly, overnight cultures of test strains in TSBYE were diluted in fresh broth before inoculating 5 mL of soft agar (0.75%) in order to obtain confluent lawns of growth on TSAYE plates. Five μL of purified mutacins, diluted in acidified (10 mM HCl) distilled water to promote solubility of the peptides, were deposited on the lawn and allowed to dry before appropriate incubation. Mutacin activity was expressed in AU/mL and corresponds to the reciprocal of the highest dilution showing a noticeable inhibition zone on the lawn.

[2] = system: L. monocytogenes ATCC 700301 ScottA; test: as above; assay type: cell-based, Listeria monocytogenes; conditions: purified mutacin, 5 μL spotted on soft agar lawn on TSAYE; reciprocal of highest dilution showing inhibition zone
Experimental: as §1, §2

[3] = system: L. monocytogenes ATCC 700302 ScottA; test: as above; assay type: cell-based, Listeria monocytogenes; conditions: purified mutacin, 5 μL spotted on soft agar lawn on TSAYE; reciprocal of highest dilution showing inhibition zone
Experimental: as §1, §2

[4] = system: L. monocytogenes FRDC 88571; test: as above; assay type: cell-based, Listeria monocytogenes; conditions: purified mutacin, 5 μL spotted on soft agar lawn on TSAYE; reciprocal of highest dilution showing inhibition zone
Experimental: as §1, §2

[5] = system: S. aureus R621; test: as above; assay type: cell-based, Staphylococcus aureus; conditions: purified mutacin, 5 μL spotted on soft agar lawn on TSAYE; reciprocal of highest dilution showing inhibition zone
Experimental: as §1, §2

[6] = system: S. aureus ATCC 25923; test: as above; assay type: cell-based, Staphylococcus aureus; conditions: purified mutacin, 5 μL spotted on soft agar lawn on TSAYE; reciprocal of highest dilution showing inhibition zone
Experimental: as §1, §2

[7] = system: S. aureus ATCC 43300; test: as above; assay type: cell-based, Staphylococcus aureus; conditions: purified mutacin, 5 μL spotted on soft agar lawn on TSAYE; reciprocal of highest dilution showing inhibition zone
Experimental: as §1, §2

[8] = Hydrophobic chromatography elution (Sep-Pak t-C18, methanol steps) as measure of hydrophobicity; assay type: physicochemical; conditions: Sep-Pak t-C18 cartridge, water:methanol steps of 10% from 0 to 100% in 10 mM HCl; used as indication of hydrophobicity
Experimental: Purification of the two mutacins was achieved by two hydrophobic chromatography steps as previously described by replacing TFA with HCl (10 mM). Briefly, the active preparation was loaded on a Sep-Pak® Vac 35 cc (10 g) t-C18 Cartridge (Waters Corporation, Milford, MA, USA). Cartridges were first equilibrated with 500 mL of methanol followed by 500 mL of deionized distilled water. Antibacterial compounds were eluted with successive steps of 500 mL of water:methanol mixtures increasing the gradient of methanol by 10% from 0 to 100% in 10 mM HCl. This was carried out at a flow rate of 1 mL/min and UV detection at 214 nm. The final purification step was carried out by reverse phase chromatography (RP)-HPLC analysis (Beckman Gold Model, Coulter Canada Inc., Mississauga, ON, Canada) using an analytical C18 column (Luna 5 μ C18(2), 250 × 4.6 mm, 4 × 3.0 mm, Phenomenex, Torrance, CA, USA). Elution was carried out with solvent A (5% acetonitrile, 10 mM HCl) and solvent B (60% acetonitrile, 10 mM HCl) and recorded at 214 nm. The following program of elution was developed: 0 to 3 min, constant 100% A; 3 to 15 min, a linear gradient from 100% A to 100% B; 15 to 20 min, constant 100% B; 20 to 23 min, a linear gradient from 100% B to 100% A. A flow rate of 1 mL/min was used. […] Protein concentration in active fractions was determined using the BioRad DC protein assay (BioRad, Mississauga, ON, Canada).

[9] = system: Micrococcus luteus ATCC 272; test: Inhibitory effect of mutacin F-59.1 on viable count (time-kill); assay type: cell-based
Experimental: One milliliter of active preparation (1600 AU/mL) adjusted to pH 7.0 was filter sterilised then added to 10 mL of an early-log-phase culture of Micrococcus luteus ATCC 272 grown in TSBYE. Bacterial culture in TSBYE was used as a negative control. The viable count in CFU/mL was determined at intervals for up to 24 h for samples and control during incubation at 37°C by plating 100 μL of an appropriate dilution in peptone water (0.1%) on TSAYE incubated at 37°C at least 24 h.

[10] = system: L. murrayi HPB 30; test: Inhibitory spectrum, critical dilution with spot test; assay type: cell-based, Listeria murrayi; conditions: purified mutacin, 5 μL spotted on soft agar lawn on TSAYE; reciprocal of highest dilution showing inhibition zone
Experimental: as §1
Mutacin activity was determined by the spot test using Micrococcus luteus ATCC 272 as sensitive strain where two-fold dilutions were prepared in acidified (pH 2) peptone water (0.5%). Antibacterial activity spectra of purified mutacins was tested against a panel of bacterial strains using the critical dilution method combined with the spot test method as described previously. […]

[11] = system: Enterococcus faecalis ATCC 27235; test: as above; assay type: cell-based; conditions: purified mutacin, 5 μL spotted on soft agar lawn on TSAYE; reciprocal of highest dilution showing inhibition zone
Experimental: as §1, §2

[12] = system: Listeria monocytogenes ATCC 15313; test: as above; assay type: cell-based; conditions: purified mutacin, 5 μL spotted on soft agar lawn on TSAYE; reciprocal of highest dilution showing inhibition zone
Experimental: as §1, §2

[13] = system: Streptococcus salivarius; test: as above; assay type: cell-based; conditions: purified mutacin, 5 μL spotted on soft agar lawn on TSAYE; reciprocal of highest dilution showing inhibition zone
Experimental: as §1, §2

[14] = system: Enterococcus faecium ATCC 19434; test: as above; assay type: cell-based; conditions: purified mutacin, 5 μL spotted on soft agar lawn on TSAYE; reciprocal of highest dilution showing inhibition zone
Experimental: as §1, §2

[15] = system: Staphylococcus aureus ATCC 6538; test: as above; assay type: cell-based; conditions: purified mutacin, 5 μL spotted on soft agar lawn on TSAYE; reciprocal of highest dilution showing inhibition zone
Experimental: as §1, §2

[16] = system: Listeria murrayi ATCC 25420; test: as above; assay type: cell-based; conditions: purified mutacin, 5 μL spotted on soft agar lawn on TSAYE; reciprocal of highest dilution showing inhibition zone
Experimental: as §1, §2

[17] = system: Enterococcus hirae ATCC 8043; test: as above; assay type: cell-based; conditions: purified mutacin, 5 μL spotted on soft agar lawn on TSAYE; reciprocal of highest dilution showing inhibition zone
Experimental: as §1, §2

KYYGNGVTCGKHSCSVDWSKATTNI (disulfide 9-14 (inferred)) [mutacin F-59.1, pediocin-like (class IIa) bacteriocin of 25 amino acids produced by Streptococcus mutans 59.1; UniProt P86386]
Activity of mutacin against L. monocytogenes FRDC 1039 [1]: 200^b AU/mL | Activity of mutacin against L. monocytogenes ATCC 700301 ScottA [2]: 200^b AU/mL | Activity of mutacin against L. monocytogenes ATCC 700302 ScottA [3]: 200^b AU/mL | Activity of mutacin against L. monocytogenes FRDC 88571 [4]: 200^b AU/mL | Activity of mutacin against S. aureus R621 [5]: 0 AU/mL | Activity of mutacin against S. aureus ATCC 25923 [6]: 0 AU/mL | Activity of mutacin against S. aureus ATCC 43300 [7]: 0 AU/mL | Elution gradient at which active fractions were recovered (methanol in 10 mM HCl) [8]: 50%-60% | Viable count of M. luteus ATCC 272 after addition of purified mutacin ([9]; 160 AU/mL (1 mL of 1600 AU/mL, pH 7.0, added to 10 mL early-log culture in TSBYE), 37°C, followed up to 24 h, CFU/mL by plating): dropped to zero | Mode of action (bactericidal or not) ([9]; 160 AU/mL, M. luteus ATCC 272, 24 h incubation): bactericidal | Activity of mutacin against L. murrayi HPB 30 [10]: 200^b AU/mL | Activity of mutacin against Enterococcus faecalis ATCC 27235 [11]: 200 AU/mL | Activity of mutacin against Listeria monocytogenes ATCC 15313 [12]: 200^b AU/mL | Activity of mutacin against Streptococcus salivarius ATCC 25923 [13]: 800 AU/mL | Activity of mutacin against Enterococcus faecium ATCC 19434 [14]: 1600 AU/mL | Activity of mutacin against Staphylococcus aureus ATCC 6538 [15]: 0 AU/mL | Activity of mutacin against Listeria murrayi ATCC 25420 [16]: 200^b AU/mL | Activity of mutacin against Enterococcus hirae ATCC 8043 [17]: 200 AU/mL
